Measured values taken from US6737383B1, “Herbicidal oxadiazolidines” (priority 1999, dated 2004).

How the values were obtained:
velvetleaf = experiment: Test B pre/postemergence velvetleaf; format: in vivo, Abutilon theophrasti
Procedure, shortened: (§1)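 Herbicidal effect was estimated by eye on a ten-point control scale after plants spent twelve to sixteen days in a greenhouse following soil or foliar treatment. Foliar sprays targeted plants at one to four leaves; all doses were formulated in a non-phytotoxic solvent with surfactant.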

purple nutsedge = experiment: Test B pre/postemergence purple nutsedge; format: in vivo, Cyperus rotundus
Procedure, shortened: as §1

soybean = experiment: Test B pre/postemergence soybean; format: in vivo, Glycine max
Procedure, shortened: as §1

wild oat = experiment: Test B pre/postemergence wild oat; format: in vivo, Avena fatua
Procedure, shortened: as §1

rape = experiment: Test B pre/postemergence rape; format: in vivo, Brassica napus
Procedure, shortened: as §1

crabgrass = experiment: Test B pre/postemergence crabgrass; format: in vivo, Digitaria sanguinalis
Procedure, shortened: as §1

surinam grass = experiment: Test B pre/postemergence surinam grass; format: in vivo, Brachiaria decumbens
Procedure, shortened: as §1

pigweed = experiment: Test B pre/postemergence pigweed; format: in vivo, Amaranthus retroflexus
Procedure, shortened: as §1

smallflower flatsedge = experiment: Test B flood test smallflower flatsedge; format: in vivo, Cyperus difformis; settings: flood test species
Procedure, shortened: (§2)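 Plants were grown to the 2-leaf stage before treatment with test chemical, then held in a greenhouse for twelve to sixteen days. Injury was visually rated against untreated controls on a 0–10 scale, where 0 is no effect and 10 is complete control.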

bamyardgrass = experiment: Test B flood test barnyardgrass; format: in vivo, Echinochloa crus-galli; settings: flood test species
Procedure, shortened: as §2

corn = experiment: Test B pre/postemergence corn; format: in vivo, Zea mays
Procedure, shortened: as §1

bedstraw = experiment: Test B pre/postemergence bedstraw; format: in vivo, Galium aparine; settings: Postemergence, Rate 500 g/ha; scale of 0 to 10 where 0 is no effect and 10 is complete control
Procedure, shortened: as §1

wheat = experiment: Test B pre/postemergence wheat; format: in vivo, Triticum aestivum
Procedure, shortened: as §1

cocklebur = experiment: Test B pre/postemergence cocklebur; format: in vivo, Xanthium strumarium
Procedure, shortened: as §1

blackgrass = experiment: Test B pre/postemergence blackgrass; format: in vivo, Alopecurus myosuroides
Procedure, shortened: as §1

duck salad = experiment: Test B flood test duck salad; format: in vivo, Heteranthera limosa; settings: flood test species
Procedure, shortened: as §2

giant foxtail = experiment: Test B pre/postemergence giant foxtail; format: in vivo, Setaria faberii
Procedure, shortened: as §1

sugar beet = experiment: Test B pre/postemergence sugar beet; format: in vivo, Beta vulgaris
Procedure, shortened: as §1

rice = experiment: Test B flood test rice; format: in vivo, Oryza sativa; settings: flood test species
Procedure, shortened: as §2

morningglory = experiment: Test B pre/postemergence morningglory; format: in vivo, Ipomoea hederacea
Procedure, shortened: as §1

[1] = Postemergence, Rate 250 g/ha, scale 0 to 10, 0 is no effect, 10 is complete control
[2] = Postemergence, Rate 500 g/ha, scale of 0 to 10 where 0 is no effect and 10 is complete control
[3] = Preemergence, Rate 62 g/ha, scale 0 to 10 (0 no effect, 10 complete control)
[4] = Preemergence, Rate 125 g/ha, scale of 0 to 10 where 0 is no effect and 10 is complete control
[5] = Preemergence, Rate 250 g/ha, scale 0 to 10, 0 is no effect, 10 is complete control
[6] = Preemergence, Rate 500 g/ha, scale 0 to 10, 0 is no effect, 10 is complete control
[7] = Postemergence, Rate 125 g/ha, scale 0 to 10, 0 is no effect, 10 is complete control
[8] = Rate 62 g/ha, Postemergence, scale of 0 to 10 where 0 is no effect and 10 is complete control
[9] = Preemergence, Rate 250 g/ha, scale of 0 to 10 where 0 is no effect and 10 is complete control
[10] = Rate 62 g/ha, Pre-emergence, visual evaluation after twelve to sixteen days
[11] = Rate 125 g/ha, under heading Pre-emergence, visual evaluation after twelve to sixteen days
[12] = Rate 500 g/ha, Pre-emergence, scale 0 to 10 (0 no effect, 10 complete control)

CC(C)Cn1c(=O)on(C(=O)N(c2ccccc2)C(C)C)c1=O [Compound 410]
Plant response rating, Velvetleaf (velvetleaf; [1]): 0 | Velvetleaf plant response rating (velvetleaf; [2]): 0 | Plant response rating, Velvetleaf (velvetleaf; [3]): 3 | Plant response rating, Velvetleaf (velvetleaf; [4]): 4 | Velvetleaf plant response rating (velvetleaf; [5]): 6 | Velvetleaf plant response rating (velvetleaf; [6]): 8 | Plant response rating, Nutsedge (purple nutsedge; [1]): 0 | Nutsedge plant response rating (purple nutsedge; [2]): 0 | Plant response rating, Nutsedge (purple nutsedge; [3]): 0 | Plant response rating, Nutsedge (purple nutsedge; [4]): 0 | Nutsedge plant response rating (purple nutsedge; [5]): 0 | Plant response rating, Soybean (soybean; [1]): 5 | Soybean plant response rating (soybean; [2]): 6 | Plant response rating, Soybean (soybean; [3]): 0 | Plant response rating, Soybean (soybean; [4]): 0 | Soybean plant response rating (soybean; [5]): 0 | Soybean plant response rating (soybean; [6]): 3 | Wild oats plant response rating (wild oat; [2]): 5 | Plant response rating, Wild oats (wild oat; [3]): 3 | Plant response rating, Wild oats (wild oat; [4]): 6 | Wild oats plant response rating (wild oat; [5]): 7 | Wild oats plant response rating (wild oat; [6]): 10 | Plant response rating, Rape (rape; [1]): 7 | Rape plant response rating (rape; [2]): 7 | Plant response rating, Rape (rape; [3]): 0 | Plant response rating, Rape (rape; [4]): 0 | Rape plant response rating (rape; [5]): 2 | Rape plant response rating (rape; [6]): 8 | Plant response rating, Crabgrass (crabgrass; [7]): 4 | Plant response rating, Crabgrass (crabgrass; [1]): 8 | Crabgrass plant response rating (crabgrass; [2]): 10 | Plant response rating, Crabgrass (crabgrass; [3]): 7 | Plant response rating, Crabgrass (crabgrass; [4]): 9 | Crabgrass plant response rating (crabgrass; [5]): 10 | Crabgrass plant response rating (crabgrass; [6]): 10 | Crabgrass plant response rating (crabgrass; [8]): 4 | Plant response rating, B. signalgrass (surinam grass; [7]): 0 | Plant response rating, B. signalgrass (surinam grass; [1]): 5 | B. signalgrass plant response rating (surinam grass; [2]): 7 | Plant response rating, B. signalgrass (surinam grass; [3]): 1 | Plant response rating, B. signalgrass (surinam grass; [4]): 5 | B. signalgrass plant response rating (surinam grass; [9]): 7 | B. signalgrass plant response rating (surinam grass; Preemergence, Rate 500 g/ha, scale of 0 to 10 where 0 is no effect and 10 is complete control): 10 | B. signalgrass plant response rating (surinam grass; [8]): 0 | Plant response rating, Redroot pigweed (pigweed; [1]): 0 | Redroot pigweed plant response rating (pigweed; [2]): 2 | Plant response rating, Redroot pigweed (pigweed; [3]): 0 | Plant response rating, Redroot pigweed (pigweed; [4]): 0 | Redroot pigweed plant response rating (pigweed; [5]): 2 | Redroot pigweed plant response rating (pigweed; [6]): 8 | Plant response rating, S. Flatsedge (0 to 10 scale, 0 is no effect, 10 is complete control) (smallflower flatsedge; [10]): 3 | S. Flatsedge plant response rating (0 to 10 scale, 0 is no effect, 10 is complete control) (smallflower flatsedge; [11]): 3 | S. Flatsedge plant response rating (smallflower flatsedge; [12]): 9 | Plant response rating, Barnyardgrass (0 to 10 scale, 0 is no effect, 10 is complete control) (bamyardgrass; [10]): 0 | Barnyardgrass plant response rating (0 to 10 scale, 0 is no effect, 10 is complete control) (bamyardgrass; [11]): 4 | Barnyardgrass plant response rating (bamyardgrass; [12]): 9 | Plant response rating, Corn (corn; [7]): 0 | Plant response rating, Corn (corn; [1]): 0 | Corn plant response rating (corn; [2]): 3 | Plant response rating, Corn (corn; [3]): 0 | Plant response rating, Corn (corn; [4]): 0 | Corn plant response rating (corn; [5]): 4 | Corn plant response rating (corn; [6]): 9 | Corn plant response rating (corn; [8]): 0 | Bedstraw plant response rating (bedstraw): 7 | Wheat plant response rating (wheat; [2]): 4 | Plant response rating, Wheat (wheat; [3]): 0 | Plant response rating, Wheat (wheat; [4]): 3 | Wheat plant response rating (wheat; [5]): 7 | Wheat plant response rating (wheat; [6]): 8 | Plant response rating, Cocklebur (cocklebur; [7]): 0 | Plant response rating, Cocklebur (cocklebur; [1]): 0 | Cocklebur plant response rating (cocklebur; [2]): 1 | Plant response rating, Cocklebur (cocklebur; [3]): 0 | Plant response rating, Cocklebur (cocklebur; [4]): 0 | Cocklebur plant response rating (cocklebur; [5]): 0 | Cocklebur plant response rating (cocklebur; [6]): 0 | Cocklebur plant response rating (cocklebur; [8]): 0 | Plant response rating, Blackgrass (blackgrass; [7]): 8 | Plant response rating, Blackgrass (blackgrass; [1]): 9 | Blackgrass plant response rating (blackgrass; [2]): 9 | Plant response rating, Blackgrass (blackgrass; [3]): 3 | Plant response rating, Blackgrass (blackgrass; [4]): 8 | Blackgrass plant response rating (blackgrass; [9]): 8 | Blackgrass plant response rating (blackgrass; [6]): 10 | Plant response rating, Ducksalad (0 to 10 scale, 0 is no effect, 10 is complete control) (duck salad; [10]): 0 | Ducksalad plant response rating (0 to 10 scale, 0 is no effect, 10 is complete control) (duck salad; [11]): 0 | Ducksalad plant response rating (duck salad; [12]): 2 | Plant response rating, Giant foxtail (giant foxtail; [7]): 9 | Plant response rating, Giant foxtail (giant foxtail; [1]): 9 | Giant foxtail plant response rating (giant foxtail; [2]): 9 | Plant response rating, Giant foxtail (giant foxtail; [3]): 9 | Plant response rating, Giant foxtail (giant foxtail; [4]): 9 | Giant foxtail plant response rating (giant foxtail; [5]): 10 | Giant foxtail plant response rating (giant foxtail; [6]): 10 | Giant foxtail plant response rating (giant foxtail; [8]): 8 | Plant response rating, Sugarbeets (sugar beet; [1]): 7 | Sugarbeets plant response rating (sugar beet; [2]): 8 | Plant response rating, Sugarbeets (sugar beet; [3]): 0 | Plant response rating, Sugarbeets (sugar beet; [4]): 0 | Sugarbeets plant response rating (sugar beet; [5]): 0 | Sugarbeets plant response rating (sugar beet; [6]): 0 | Plant response rating, Rice (0 to 10 scale, 0 is no effect, 10 is complete control) (rice; [10]): 0 | Rice plant response rating (0 to 10 scale, 0 is no effect, 10 is complete control) (rice; [11]): 0 | Rice plant response rating (rice; [12]): 5 | Plant response rating, Morningglory (morningglory; [1]): 8 | Morningglory plant response rating (morningglory; [2]): 8 | Plant response rating, Morningglory (morningglory; [3]): 0 | Plant response rating, Morningglory (morningglory; [4]): 0 | Morningglory plant response rating (morningglory; [5]): 0 | Morningglory plant response rating (morningglory; [6]): 0
